Assay results reported in patent US20230064189A1, “1H-PYRAZOLO[3,4-D]PYRIMIDINE COMPOUNDS USEFUL FOR THE TREATMENT OF PLATINUM-RESISTANT CANCER” (IMPERIAL COLLEGE INNOVATIONS LIMITED, priority 2019, published 2023).

How the values were obtained:
[1] = system: SKOV3 cells; assay: Phenotypic apoptosis assay (caspase 3/7 normalised to MTT) plus/minus cisplatin in SKOV3; assay type: cell-based; conditions: for activity in phenotypic in vitro apoptosis platinum re-sensitisation assays: inhibitor 6.67 μM + cisplatin 25 μM
Protocol: Data shown is n=3±s.e.m; ** p<0.01, * p<0.0^5.
(§1) MTT is bioreduced by mitochondrial dehydrogenase enzymes into a coloured solid formazan product. MTT reagent (Sigma, UK) was initially prepared by dissolving in PBS at a concentration of 3 mg/ml. […] After incubation for 3 h at 37° C. 5% CO2, an equal volume of stop solution (10% SDS in 0.01% HCl) was added and formed formazan crystals were allowed to dissolve shaking overnight. The following day, the optical density was read at 570 nm and analysis performed as per each assay type.
(§2) The caspase 3/7 activity of cells following treatment with inhibitor compounds or vehicle (DMSO) was determined using the Caspase-Glo® 3/7 Assay (Catalogue number G8093, Promega, US) according to manufacturer's instructions. Briefly, 10,000 cells per well for PEO1 and PEO4 cell lines or 5000 cells per well for SKOV3 cell line were grown in 96 well plates in a final volume of 50 μl and following relevant drug treatment of cells (example compound±cisplatin, comparative example compound±cisplatin, or vehicle±cisplatin) for 24 hours, an equal volume of Caspase-Glo® Reagent containing a luminogenic substrate for Caspase 3 and Caspase 7 was added i.e. if cells cultured in 50 μl of media, 50 μl of caspase reagent was added. After 1 h incubation at room temperature in the dark, the luminescence of each sample was measured in a plate-reading luminometer (LUMIstar OPTIMA, BMG Labtech, Germany). Caspase 3/7 activity data was normalised to corresponding viability data from MTT and analysis was performed according to each experimental set-up.
(§3) Phenotypic apoptosis assays were performed to determine the level of caspase 3/7 dependent apoptotic induction of each inhibitor compound in the presence or absence of cisplatin (cddp). PEO4 and SKOV3 cells were seeded out 24 hours prior to drug treatments. […] 5% CO2. […] Duplicate plates were set up for each experiment for caspase and MTT assays. Caspase and MTT assays were carried out according to the protocols described above.
(§4) Data shown in FIGS. 2A and 2B are n=3±s.e.m. Statistical significance was calculated using student t-test using GraphPad Prism software ** p<0.01, * p<0.05.

[2] = system: PEO4 cells; assay: Relative re-sensitisation ratio of apoptosis induction (caspase 3/7 normalised to MTT) with cisplatin; assay type: cell-based; conditions: compound at 20 μM, triciribine at 25 μM, cisplatin 25 μM, 24 h
Protocol: Cell viability was determined for different assays (as described in FIGS. 1 and 2, Table 5) in optically clear 96 well plates using the standard 3-(4, 5-dimethylthiazol-2-yl)-2, 5-diphenyl tetrazolium bromide (MTT) assay, which is a colorimetric method for determining the number of metabolically active cells in cytotoxicity assays. MTT is bioreduced by mitochondrial dehydrogenase enzymes into a coloured solid formazan product. MTT reagent (Sigma, UK) was initially prepared by dissolving in PBS at a concentration of 3 mg/ml. Following relevant drug treatments at different time points and cell lines (described in results section and FIGS. 1 and 2), MTT reagent was added to each experimental well at a final concentration of 0.5 mg/ml. After incubation for 3 h at 37° C. 5% CO2, an equal volume of stop solution (10% SDS in 0.01% HCl) was added and formed formazan crystals were allowed to dissolve shaking overnight. The following day, the optical density was read at 570 nm and analysis performed as per each assay type.
as §2
. Apoptosis (caspase 3/7) and viability (MTT) assays were carried out as described for each assay protocols and the phenotypic apoptosis assays above. Relative apoptosis induction was inferred from caspase 3/7 assay values normalised to the standard MTT viability assay values of each corresponding well. […]

[3] = target: AKT2 (Homo sapiens, UniProt P31751); assay: AKT2 enzymatic inhibition assay (HTRF KinEASE); assay type: biochemical; conditions: read-out: AKT2 pIC50 (converted)
Protocol: (§5) The IC50 values of Example compounds of the invention for AKT1, AKT2 and AKT3 were measured using HTRF (Homogeneous Time Resolved Fluorescence) KinEASE assays (62ST3PEB—1000 tests or 62ST3PEC—20,000 tests) from cisbio.com, according to manufacturer's instructions.

[4] = target: DNA-PK (Homo sapiens, UniProt P78527); assay: DNA-PK enzymatic inhibition assay (HTRF KinEASE); assay type: biochemical; conditions: read-out: DNA-PK pIC50 (converted)
Protocol: The IC50 values of Example compounds of the invention for DNA-PK were measured using the HTRF KinEASE assay as described above.

[5] = target: AKT1 (Homo sapiens, UniProt P31749); assay: AKT1 enzymatic inhibition assay (HTRF KinEASE); assay type: biochemical; conditions: read-out: AKT1 pIC50 (converted)
Protocol: as §5

[6] = target: AKT3 (Homo sapiens, UniProt Q9Y243); assay: AKT3 enzymatic inhibition assay (HTRF KinEASE); assay type: biochemical; conditions: read-out: AKT3 pIC50 (converted)
Protocol: as §5

[7] = system: PEO4 cells; assay: Phenotypic apoptosis assay (caspase 3/7 normalised to MTT) plus/minus cisplatin in PEO4; assay type: cell-based; conditions: 24 hours
Protocol: as §1, §2, §3, §4

[8] = system: platinum resistant cell line PEO4; assay: Isobologram (Loewe synergy/antagonism, MTT viability) with cisplatin in PEO4; assay type: cell-based; conditions: PEO4, 72 hours, MTT readout
Protocol: (§6) . Data shown is n=3. Decreasing negative numbers within each table indicate increasing levels of antagonism, increasing positive numbers indicate increasing levels of synergy between cisplatin and inhibitor compounds.
(§7) Cell viability was determined for different assays (as described in FIGS. 1 and 2, Table 5) in optically clear 96 well plates using the standard 3-(4, 5-dimethylthiazol-2-yl)-2, 5-diphenyl tetrazolium bromide (MTT) assay, which is a colorimetric method for determining the number of metabolically active cells in cytotoxicity assays. MTT is bioreduced by mitochondrial dehydrogenase enzymes into a coloured solid formazan product. […] The following day, the optical density was read at 570 nm and analysis performed as per each assay type.
(§8) All cell lines (PEO1, PEO4 and SKOV3) were seeded out 24 hours prior to treatment into 96 well plates at 10,000 cells per well in triplicate for each inhibitor compound. […] Following 72 hours incubation, cell viability was assessed using the MTT assay (n=3). IC50 values for each compound was determined using GraphPad Prism software, non-linear regression of log (inhibitor) versus response (three parameters). All isobologram assays used the standard MTT protocol as described above for assay readout. […] Following 72 h incubation, cell viability was assessed using MTT assays as described above. […]

[9] = system: platinum sensitive cell line PEO1; assay: Isobologram (Loewe synergy/antagonism, MTT viability) with cisplatin in PEO1; assay type: cell-based; conditions: PEO1, 72 hours, MTT readout
Protocol: as §6, §7, §8

[10] = system: platinum resistant epithelial ovarian cancer cell line SKOV3; assay: Isobologram (Loewe synergy/antagonism, MTT viability) with cisplatin in SKOV3; assay type: cell-based; conditions: SKOV3, 72 hours, MTT readout
Protocol: as §6, §7, §8

[11] = inhibitor 10 μM + cisplatin 25 μM, 24 hours
[12] = inhibitor 10 μM + cisplatin 25 μM

Chain of AKT2 (P31751 152-409 limits assumed): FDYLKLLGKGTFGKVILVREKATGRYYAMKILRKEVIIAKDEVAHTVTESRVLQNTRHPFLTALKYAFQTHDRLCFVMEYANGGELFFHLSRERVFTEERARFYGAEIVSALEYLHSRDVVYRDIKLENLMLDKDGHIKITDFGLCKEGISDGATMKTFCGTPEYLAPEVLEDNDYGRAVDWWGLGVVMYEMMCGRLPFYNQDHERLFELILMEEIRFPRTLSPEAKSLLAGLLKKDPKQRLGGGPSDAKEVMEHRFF
Chain of AKT3 (Q9Y243 148-405 limits assumed): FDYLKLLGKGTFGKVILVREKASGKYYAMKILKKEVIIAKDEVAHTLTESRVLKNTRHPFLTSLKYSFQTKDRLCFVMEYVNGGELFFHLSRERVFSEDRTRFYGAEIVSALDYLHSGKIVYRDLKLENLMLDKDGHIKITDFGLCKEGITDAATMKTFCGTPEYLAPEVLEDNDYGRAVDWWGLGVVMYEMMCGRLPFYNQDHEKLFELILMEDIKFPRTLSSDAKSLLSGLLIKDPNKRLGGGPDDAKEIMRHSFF
Chain of AKT1 (P31749 150-408 limits assumed): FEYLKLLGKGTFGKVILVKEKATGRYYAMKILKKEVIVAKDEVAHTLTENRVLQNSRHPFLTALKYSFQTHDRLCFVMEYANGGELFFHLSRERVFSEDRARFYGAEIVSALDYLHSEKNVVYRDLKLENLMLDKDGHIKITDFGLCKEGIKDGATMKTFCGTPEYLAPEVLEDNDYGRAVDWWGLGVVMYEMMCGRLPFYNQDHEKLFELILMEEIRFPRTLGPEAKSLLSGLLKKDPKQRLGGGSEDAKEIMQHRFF

SMILES	IC50 [3]	IC50 [4]	IC50 [5]	IC50 [6]	activity in phenotypic in vitro apoptosis platinum re-sensitisation assays [1]	Relative re-sensitisation ratio of apoptosis induction (caspase 3/7) relative to triciribine phosphate [2]	apoptosis (re-sensitisation) in combination with cisplatin [1, 11]	apoptosis (re-sensitisation) in combination with cisplatin [7, 12]	also measured
Cn1ncc(Cl)c1-c1cc(C(=O)N[C@H](CN)Cc2cccc(F)c2)sc1Cl [Afuresertib, N-[(2S)-1-amino-3-(3-fluorophenyl)propan-2-yl]-5-chloro-4-(4-chloro-2-methylpyrazol-3-yl)thiophene-2-carboxamide]	–	–	–	–	–	–	showed re-sensitisation	showed re-sensitisation	–
CC(C)NC[C@@H](C(=O)N1CCN(c2ncnc3c2[C@H](C)C[C@H]3O)CC1)c1ccc(Cl)cc1 [Ipatasertib, (2S)-2-(4-chlorophenyl)-1-[4-[(5R,7R)-7-hydroxy-5-methyl-6,7-dihydro-5H-cyclopenta[d]pyrimidin-4-yl]piperazin-1-yl]-3-(propan-2-ylamino)propan-1-one]	–	–	–	–	–	–	–	–	apoptosis (re-sensitisation) in combination with cisplatin ([1]; inhibitor 20 μM + cisplatin 25 μM, 24 hours): showed re-sensitisation; apoptosis (re-sensitisation) in combination with cisplatin ([7]; inhibitor 20 μM + cisplatin 25 μM): showed re-sensitisation
CO[C@@H](C)Cn1c(=O)n(C)c2cnc3ccc(-c4cncc(C(C)(C)O)c4)cc3c21 [LY3023414, 8-[5-(2-hydroxypropan-2-yl)pyridin-3-yl]-1-[(2S)-2-methoxypropyl]-3-methylimidazo[4,5-c]quinolin-2-one]	–	–	–	–	–	–	showed re-sensitisation	showed re-sensitisation	–
O=c1cc(N2CCOCC2)oc2c(-c3cccc4c3sc3ccccc34)cccc12 [NU7441, 8-dibenzothiophen-4-yl-2-morpholin-4-ylchromen-4-one]	–	–	–	–	–	–	showed re-sensitisation	showed re-sensitisation	–
Cn1ncc(Cl)c1-c1cc(C(=O)N[C@H](CN)Cc2ccc(F)c(F)c2)oc1Cl [Uprosertib, N-[(2S)-1-amino-3-(3,4-difluorophenyl)propan-2-yl]-5-chloro-4-(4-chloro-2-methylpyrazol-3-yl)furan-2-carboxamide]	–	–	–	–	–	–	showed re-sensitisation	showed re-sensitisation	–

Continued, in another order:

IC50 [3]	IC50 [4]	IC50 [5]	IC50 [6]	SMILES	activity in phenotypic in vitro apoptosis platinum re-sensitisation assays [1]	Relative re-sensitisation ratio of apoptosis induction (caspase 3/7) relative to triciribine phosphate [2]	apoptosis (re-sensitisation) in combination with cisplatin [1, 11]	apoptosis (re-sensitisation) in combination with cisplatin [7, 12]	also measured
1.41 nM	0.158 nM	0.575 nM	0.219 nM	CN(C)CCNC(c1ccc(Cl)cc1)C1CCN(c2ncnc3[nH]nc(C(F)(F)F)c23)CC1 (single isomer, unassigned; (+)) [Example 12a, (+)-N^1-((4-chlorophenyl)(1-(3-(trifluoromethyl)-1H-pyrazolo[3,4-d]pyrimidin-4-yl)piperidin-4-yl)methyl)-N^2,N^2-dimethylethane-1,2-diamine]	active	1.2	–	–	–
5.5 nM	5.37 nM	3.39 nM	0.832 nM	CN(C)CCNC(c1ccc(Cl)cc1)C1CCN(c2ncnc3[nH]nc(C(F)(F)F)c23)CC1 (single isomer, unassigned; (-)) [Example 12b, (−)-N^1-((4-chlorophenyl)(1-(3-(trifluoromethyl)-1H-pyrazolo[3,4-d]pyrimidin-4-yl)piperidin-4-yl)methyl)-N^2,N^2-dimethylethane-1,2-diamine]	active	1.0	–	–	–
0.55 nM	0.24 nM	0.324 nM	0.112 nM	CN(C)CC(c1ccc(Cl)cc1)N1CCN(c2ncnc3[nH]nc(Br)c23)CC1 (centres unmarked) [Example 1, 2-[4-(3-bromo-1H-pyrazolo[3,4-d]pyrimidin-4-yl)piperazin-1-yl]-2-(4-chlorophenyl)-N,N-dimethyl-ethanamine]	active	3.0	–	–	apoptosis (re-sensitisation) in combination with cisplatin compared to cisplatin alone ([1]; inhibitor 2 μM + cisplatin 25 μM, 24 hours): statistically significant increases in apoptosis; synergy in combination with cisplatin (Loewe isobologram analysis) [8]: strong synergy; synergy in combination with cisplatin (Loewe isobologram analysis) [9]: superior synergy; synergy in combination with cisplatin (Loewe isobologram analysis) [10]: strong synergy; apoptosis (re-sensitisation) in combination with cisplatin compared to cisplatin alone ([7]; inhibitor 2 μM + cisplatin 25 μM): statistically significant increases in apoptosis
10.5 nM	3.89 nM	5.75 nM	3.63 nM	CN(C)CCOC(c1ccc(Cl)cc1)C1CCN(c2ncnc3[nH]nc(Br)c23)CC1 (centres unmarked) [Example 2, 2-((1-(3-bromo-1H-pyrazolo[3,4-d]pyrimidin-4-yl)piperidin-4-yl)(4-chlorophenyl)methoxy)-N,N-dimethylethan-1-amine]	active	2.9	–	–	–
–	10.5 nM	–	–	CCn1c(-c2nonc2N)nc2c(C#CC(C)(C)O)ncc(OC[C@H]3CCCNC3)c21 [GSK-3g, 4-[2-(4-amino-1,2,5-oxadiazol-3-yl)-1-ethyl-7-[[(3S)-piperidin-3-yl]methoxy]imidazo[4,5-c]pyridin-4-yl]-2-methylbut-3-yn-2-ol, reference compound]	inactive	–	–	–	–
